Data from patent publication US20230002359A1, “PESTICIDALLY ACTIVE FUSED BICYCLIC HETEROAROMATIC COMPOUNDS” (priority 2019, published 2023).

Tests used:
Type in all cases: in vivo
[1] = tested on: Chilo suppressalis (Striped Rice Stemborer); experiment: Example B3: Chilo suppressalis (striped rice stemborer), artificial diet, L2 larvae; conditions: 144 h, application rate of 200 ppm, 6 days after infestation, L2 larvae, read-out: control in at least one of the three categories (mortality, anti-feedant effect, or growth inhibition)
How it was run: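 Artificial diet in wells was treated with aqueous test solutions diluted from 10'000 ppm DMSO stocks, dried, then infested with 6-8 L2 larvae per well. Mortality, anti-feeding effect and growth inhibition were scored against untreated samples 6 days after infestation; control means any category exceeds the untreated sample.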

[2] = tested on: Myzus persicae (Green Peach Aphid); experiment: Example B5: Myzus persicae (green peach aphid) feeding/contact activity, sunflower leaf discs; conditions: foliar, 144 h, application rate of 200 ppm, 6 days after infestation
Protocol: Sunflower leaf discs were placed onto agar in a 24-well microtiter plate and sprayed with aqueous test solutions prepared from 10′000 ppm DMSO stock solutions. After drying, the leaf discs were infested with an aphid population of mixed ages. The samples were assessed for mortality 6 days after infestation.

[3] = tested on: Spodoptera littoralis (Egyptian Cotton Leaf Worm); experiment: Example B7: Spodoptera littoralis (Egyptian cotton leaf worm), cotton leaf discs sprayed, L1 larvae; conditions: foliar, 72 h, application rate of 200 ppm, 3 days after infestation, L1 larvae, read-out: control in at least one of the three categories (mortality, anti-feedant effect, or growth inhibition)
How it was run: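 Cotton leaf discs on agar were sprayed with aqueous test solutions made from 10′000 ppm DMSO stocks, dried, then infested with five L1 larvae. Mortality, anti-feeding effect and growth inhibition were scored against untreated discs 3 days after infestation; control means any category exceeds untreated.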

[4] = tested on: Diabrotica Balteata (Corn Root Worm); experiment: Example B1: Diabrotica balteata (corn root worm), maize sprouts sprayed, L2 larvae; conditions: 96 h, application rate of 200 ppm, 4 days after infestation, L2 larvae, read-out: control in at least one of the two categories (mortality or growth inhibition)
How it was run: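 Spray test: maize sprouts on agar, aqueous dilutions of 10′000 ppm DMSO stock; after drying, 6–10 L2 larvae/well. Read-out at 4 d post-infestation: mortality and growth inhibition vs untreated.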

[5] = tested on: Myzus persicae (Green Peach Aphid); experiment: Example B6: Myzus persicae (green peach aphid) intrinsic activity, sucrose solution; conditions: 120 h, test rate of 12 ppm, 5 days after infestation, intrinsic activity, read-out: mortality
How it was run: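 Mortality was read 5 days after infestation. Aphids on pea seedlings fed through a stretched Parafilm membrane on inverted 24-well plates containing sucrose solution mixed with test compound, which was diluted from 10′000 ppm DMSO stock.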

[6] = tested on: Plutella xylostella (Diamond Back Moth); experiment: Example B4: Plutella xylostella (diamond back moth), artificial diet, eggs, 24-well; conditions: 192 h, application rate of 200 ppm, 8 days after infestation, eggs, read-out: control in at least one of the two categories (mortality or growth inhibition)
Protocol: 24-well microtiter plates with artificial diet were treated with aqueous test solutions prepared from 10′000 ppm DMSO stock solutions by pipetting. After drying, Plutella eggs were pipetted through a plastic stencil onto a gel blotting paper and the plate was closed with it. The samples were assessed for mortality and growth inhibition in comparison to untreated samples 8 days after infestation.

[7] = tested on: Euschistus heros (Neotropical Brown Stink Bug); experiment: Example B2: Euschistus heros (neotropical brown stink bug), soybean leaves sprayed, N2 nymphs; conditions: 120 h, application rate of 200 ppm, 5 days after infestation, N2 nymphs, read-out: control in at least one of the two categories (mortality or growth inhibition)
Protocol: Soybean leaves on agar in 24-well microtiter plates were sprayed with aqueous test solutions prepared from 10′000 ppm DMSO stock solutions. After drying the leaves were infested with N2 nymphs. The samples were assessed for mortality and growth inhibition in comparison to untreated samples 5 days after infestation.

C[C@@H](c1ncnn1-c1ccc(C#N)cn1)N(C)c1ncnc2c(I)cc(C(F)(F)F)cc12 [P.228, 6-[5-[(1S)-1-[[8-iodo-6-(trifluoromethyl)quinazolin-4-yl]-methyl-amino]ethyl]-1,2,4-triazol-1-yl]pyridine-3-carbonitrile]
≥ 80%: percent control (mortality, anti-feedant effect or growth inhibition) at 200 ppm [1] | mortality at 200 ppm [2] | percent control (mortality, anti-feedant effect or growth inhibition) at 200 ppm [3] | percent control (mortality or growth inhibition) at 200 ppm [4] | mortality at 12 ppm [5] | percent control (mortality or growth inhibition) at 200 ppm [6] | percent control (mortality or growth inhibition) at 200 ppm [7]

C[C@@H](c1ncnn1-c1ncccn1)N(C)c1ncnc2c(C(F)(F)C3CC3)cc(C(F)(F)F)cc12 [P.201, 8-[cyclopropyl(difluoro)meth-yl]-N-methyl-N-[(1S)-1-(2-pyrimidin-2-yl-1,2,4-triazol-3-yl)ethyl]-6-(trifluoromethyl)quinazolin-4-amine]
≥ 80%: percent control (mortality, anti-feedant effect or growth inhibition) at 200 ppm [1] | mortality at 200 ppm [2] | percent control (mortality, anti-feedant effect or growth inhibition) at 200 ppm [3] | percent control (mortality or growth inhibition) at 200 ppm [4] | mortality at 12 ppm [5] | percent control (mortality or growth inhibition) at 200 ppm [6] | percent control (mortality or growth inhibition) at 200 ppm [7]

C[C@@H](c1ncnn1-c1ccc(C#N)cn1)N(CC1CC1)c1ncnc2c(C(F)(F)F)cc(Cl)cc12 [P.264, 6-[5-[(1S)-1-[[6-chloro-8-(trifluoromethyl)quinazolin-4-yl]-(cyclopropylmethyl)amino]ethyl]-1,2,4-triazol-1-yl]pyridine-3-carbonitrile]
≥ 80%: percent control (mortality, anti-feedant effect or growth inhibition) at 200 ppm [1] | mortality at 200 ppm [2] | percent control (mortality, anti-feedant effect or growth inhibition) at 200 ppm [3] | percent control (mortality or growth inhibition) at 200 ppm [4] | mortality at 12 ppm [5] | percent control (mortality or growth inhibition) at 200 ppm [6] | percent control (mortality or growth inhibition) at 200 ppm [7]

CC(c1ncnn1-c1ncccn1)N(C)c1ncnc2c(Br)cc(Cl)cc12 (stereo not drawn) [P.172, 8-bromo-6-chloro-N-methyl-N-[1-(2-pyrimidin-2-yl-1,2,4-triazol-3-yl)ethyl]quinazolin-4-amine]
≥ 80%: percent control (mortality, anti-feedant effect or growth inhibition) at 200 ppm [1] | mortality at 200 ppm [2] | percent control (mortality, anti-feedant effect or growth inhibition) at 200 ppm [3] | percent control (mortality or growth inhibition) at 200 ppm [4] | mortality at 12 ppm [5] | percent control (mortality or growth inhibition) at 200 ppm [6] | percent control (mortality or growth inhibition) at 200 ppm [7]

C[C@@H](c1ncnn1-c1ccc(C#N)cn1)N(C)c1ncnc2c(SC(F)(F)F)cc(C(F)(F)F)cc12 [P.215, 6-[5-[(1S)-1-[methyl-[6-(trifluoromethyl)-8-(trifluoromethylsulfanyl)quinazolin-4-yl]amino]ethyl]-1,2,4-triazol-1-yl]pyridine-3-carbonitrile]
≥ 80%: percent control (mortality, anti-feedant effect or growth inhibition) at 200 ppm [1] | mortality at 200 ppm [2] | percent control (mortality, anti-feedant effect or growth inhibition) at 200 ppm [3] | percent control (mortality or growth inhibition) at 200 ppm [4] | mortality at 12 ppm [5] | percent control (mortality or growth inhibition) at 200 ppm [6] | percent control (mortality or growth inhibition) at 200 ppm [7]

C[C@@H](c1ncnn1-c1ncccn1)N(CC1CC1)c1ncnc2c(C(F)(F)F)cc(Cl)cc12 [P.265, 6-chloro-N-(cyclopropylmethyl)-N-[(1S)-1-(2-pyrimidin-2-yl-1,2,4-triazol-3-yl)ethyl]-8-(trifluoromethyl)quinazolin-4-amine]
≥ 80%: percent control (mortality, anti-feedant effect or growth inhibition) at 200 ppm [1] | mortality at 200 ppm [2] | percent control (mortality, anti-feedant effect or growth inhibition) at 200 ppm [3] | percent control (mortality or growth inhibition) at 200 ppm [4] | mortality at 12 ppm [5] | percent control (mortality or growth inhibition) at 200 ppm [6] | percent control (mortality or growth inhibition) at 200 ppm [7]
